Data taken from patent US8937050B2, “Methods and compositions for treatment of autism” (The Johns Hopkins University, priority 2011, dated 2015).

Experiments:
XALD fibroblasts [1] = experiment: Inhibition studies: ATP5B immunofluorescence of drug-induced mitochondrial biogenesis; type: cell-based, human; conditions: inhibitor added before 4PBA, HU, TSA or SFN; XALD fibroblasts
Method: Performed as described in Watkins et al., 1995 using 4% formaldehyde, 1% Triton X-100, primary antibody anti-ATP5B (Millipore, Billerica, Mass.) or anti-ABCD3 (Invitrogen, Carlsbad, Calif.), and secondary antibody sheep anti-mouse IgG FITC-conjugated (Santa Cruz Biotechnology, Santa Cruz, Calif.) or goat anti-rabbit IgG rhodamine-conjugated (Jackson ImmunoResearch, West Grove, Pa.).
Antimycin A (10 ng/mL), LY294002, PD98059, RO-31-8425, SB203580, SP600125, and L-NAME were obtained from Sigma. Compound C was from EMD Biosciences (Darmstadt, Germany). Human fibroblasts were treated with each inhibitor. Then, 45-75 min later, either 4PBA, HU, TSA, or SFN was added. Cells were stained four to six days after treatment with one of the small molecules. As a control for inhibitors dissolved in DMSO, fibroblasts were treated with an equivalent amount of DMSO in the absence of inhibitor. […]
In FIGS. 2A-B, the JNK inhibitor SP600125 (10 μM+inh) was utilized. […] XALD fibroblasts were treated with each drug for four days with or without SP600125. (400× magnification). […] Normal human fibroblasts were treated with each of the small four molecules with or without SP600125 for six days. Quantitative in-cell western analyses were performed using anti-ATP5B.

FL-SMN mRNA = experiment: RT-PCR of FL-SMN and total SMN mRNA in spinal muscular atrophy fibroblasts; type: cell-based, human; conditions: effect of co-treatment with stress pathway inhibitor; FIG. 8B
Method: Following the manufacturer's protocols, DNase I-treated cDNA was synthesized using Superscript III or Thermoscript reverse transcriptase (Invitrogen). PCR reactions were performed in duplicate on the Roche Lightcycler 3.5 (Basel, Switzerland) or the Bio-Rad iCycler (Hercules, Calif.) using Quantitech SYBR green PCR mix (Qiagen, Valencia, Calif.). GeNorm software calculated a normalization factor for each sample using the relative amounts of at least two of the following reference genes, β2-microglobulin, […], actin, and/or eukaryotic elongation factor 1A (Vandesompele et al., 2002). Primers for the various experiments described herein are listed below.
Type I and type III spinal muscular atrophy (SMA I or SMA III) fibroblasts were treated with SFN for the indicated times. The relative fold increase in the ratio of FL-SMN/total SMN transcripts compared with the untreated cell line (normalized to 1) is plotted. Cell lines from left to right are GM09677, GM00232 and 2906. N≧2 independent experiments.
Spinal muscular atrophy fibroblasts were treated with 1.5 mM SFN alone for 51 hr. (SMA I, GM09677) or treated with 0.5 mM SFN for 8 hr. (SMA III, 2906) with or without […] SP600125 (JNK inhibitor), 2.5 mM 3-methyladenine (autophagy inhibitor, APG), […] antimycin A (mitochondrial inhibitor, MITO) or […] sirtinol (SIRT1 inhibitor). The fold increases in FL-SMN expression compared with either GAPDH or total SMN expression and the fold increase in total SMN expression compared with GAPDH expression after SFN treatment is plotted. Untreated values were normalized to 1 and are indicated by the horizontal line. (n=1 per cell line, performed in duplicate)
To determine which stress pathways are necessary for the increase in FL-SMN production, spinal muscular atrophy fibroblasts were co-treated with SFN and either SP600125, an inhibitor of the JNK pathway (Bennett et al., 2001), 3-methyladenine, an inhibitor of the autophagy pathway (Seglen et al., 1982), antimycin A, a mitochondrial inhibitor (Ranganathan et al., 2009), or sirtinol, an inhibitor of SIRT1 activity (Grozinger et al., 2001). […] SIRT1, an NAD+-dependent deacetylase, is known to regulate cellular stress responses, cellular metabolism and cellular survival (Salminen et al., 2009). Specifically, SIRT1 inhibition reduces the induction of HSR genes (Westerheide et al., 2009); SIRT1 activity enhances SOD2 expression (Anastasiou et al., 2006); SIRT1 negatively regulates the mammalian target of rapamycin triggering autophagy (Haigis et al., 2010); and SIRT1 activates mitochondrial biogenesis via the stress-responsive transcription factor PGC1a (Yu et al., 2009). The yeast ortholog Sir2 is necessary for the induction of mitochondrial biogenesis by 4PBA or HU in Saccharomyces cerevisiae (Cha 2010). […] However, SIRT1 can be activated by various post-translational changes. Therefore, the potential involvement of SIRT1 in the therapeutic effects of these drugs by inhibition studies was evaluated.

K562 cells [2] = experiment: Flow cytometric analysis of mitochondrial mass (Mitotracker); type: cell-based, human; conditions: FIG. 1C
Method: (§1) Fibroblasts (70-95% confluent) were treated with 5 mM 4PBA (1 mM for JNK inhibition studies), 600 μM HU, 200 nM TSA, or 5 μM SFN unless otherwise specified.
(§2) K562 cells were incubated with 50 nM Mitotracker Green FM, 300 nM Mitotracker Deep Red 633 (Invitrogen), or PBS as a negative control for 15 min at 37° C. or stained with anti-Pex14 using Caltag Fix and Perm reagents (Invitrogen) following the manufacturer's instructions. Stained cells were suspended in 0.5 mL of 1% paraformaldehyde/PBS and subjected to flow cytometric analysis (FACScan machine, Becton Dickinson, Franklin Lakes, N.J.).
(§3) K562 cells were treated with SB and HU for four to ten days. […] (n≧3 unless otherwise noted).
To determine whether the induction of mitochondrial biogenesis by SB or HU treatment was necessary for the induction of HbF-producing cell production, K562 cells were treated with SB or HU in the presence or absence of AA. […] After two to four days of drug treatment with or without AA, mitochondrial mass was measured using Mitotracker, a mitochondrial stain. Fold change (drug treated/control) is shown. […] After four days of drug treatment with or without AA, cells were stained with DAF. The relative number of cells producing HbF (DAF stained cells) were plotted. […] After eight to ten days of drug treatment, peroxisome proliferation was measured using an antibody against the peroxisomal membrane protein, PEX14 and a FITC-labeled secondary antibody. Fold change (drug treated/control) is shown. In FIGS. 1C, 1D, and 1E, the * represents a statistically significant increase in a measurement between drug treated and control samples or a statistically significant decrease in a measurement between drug treated and drug treated samples in the presence of AA (p≦0.05) (Bars=SEM). This finding indicates dependence of the beneficial effect (i.e., elevated HbF levels) on induced mitochondrial biogenesis. Thus, the therapeutic effects observed in SCD may involve the pharmacological induction of mitochondrial biogenesis by SB or HU. […]

K562 cells [3] = experiment: HbF-producing cell production (DAF staining); type: cell-based, human; conditions: FIG. 1D
Method: as §1
K562 cells were suspended in 1.1 mL media and 240 μL of DAF [working solution 50 μL 2,7diaminofluorene (DAF) stock (50 μg DAF in 5 mL 90% glacial acetic acid), 50 μL 30% hydrogen peroxide, and 2.5 ml 200 mM Tris-HCl, pH 7.0]. DAF stained hemoglobinized cells were scored using a hemocytometer.
as §3
To determine whether the induction of mitochondrial biogenesis by SB or HU treatment was necessary for the induction of HbF-producing cell production, K562 cells were treated with SB or HU in the presence or absence of AA. […] After two to four days of drug treatment with or without AA, mitochondrial mass was measured using Mitotracker, a mitochondrial stain. Fold change (drug treated/control) is shown. […] After four days of drug treatment with or without AA, cells were stained with DAF. The relative number of cells producing HbF (DAF stained cells) were plotted. […] After eight to ten days of drug treatment, peroxisome proliferation was measured using an antibody against the peroxisomal membrane protein, PEX14 and a FITC-labeled secondary antibody. Fold change (drug treated/control) is shown. In FIGS. 1C, 1D, and 1E, the * represents a statistically significant increase in a measurement between drug treated and control samples or a statistically significant decrease in a measurement between drug treated and drug treated samples in the presence of AA (p≦0.05) (Bars=SEM). This finding indicates dependence of the beneficial effect (i.e., elevated HbF levels) on induced mitochondrial biogenesis. Thus, the therapeutic effects observed in SCD may involve the pharmacological induction of mitochondrial biogenesis by SB or HU.
K562 cells were treated for four days with HU in the presence or absence of SP600125 or PBS as a control (CON). […]

HbF = conditions: Keefer et al., 2006; cited from earlier work
K562 cells [4] = experiment: Flow cytometric analysis of peroxisome proliferation (PEX14); type: cell-based, human; conditions: eight to ten days, FIG. 1E
Method: as §1, §2, §3
To determine whether the induction of mitochondrial biogenesis by SB or HU treatment was necessary for the induction of HbF-producing cell production, K562 cells were treated with SB or HU in the presence or absence of AA. […] After two to four days of drug treatment with or without AA, mitochondrial mass was measured using Mitotracker, a mitochondrial stain. Fold change (drug treated/control) is shown. […] After four days of drug treatment with or without AA, cells were stained with DAF. […] After eight to ten days of drug treatment, peroxisome proliferation was measured using an antibody against the peroxisomal membrane protein, PEX14 and a FITC-labeled secondary antibody. […]

XALD fibroblasts [5] = experiment: Fatty acid β-oxidation of 1-14C-labeled fatty acids; type: cell-based, human
Method: Fatty acid β-oxidation activity in XALD fibroblasts was determined by measuring their capacity to degrade 1-^14C-labeled fatty acids to water-soluble products as described in McGuiness et al., 2003.
4PBA-induced peroxisomal VLCFA β-oxidation (degradation) is dependent on mitochondrial long chain fatty acid (LCFA) β-oxidation (McGuinness et al., 2003). […] Antimycin A (AA) is a cytochrome c reductase inhibitor that inhibits the mitochondrial electron transport chain, mitochondrial biogenesis, and thus, cellular respiration (Ranganathan et al., 2009). […] XALD fibroblasts were treated with 4PBA in the presence or absence of antimycin A (AA), a cytochrome c reductase inhibitor, for five days and β-oxidation levels of LCFA (C16:0) and VLCFA (C24:0) levels were measured.

[6] = K562 cells, 1.2 mM SB or 100 μM HU

Compound: C[S+]([O-])c1ccc(-c2nc(-c3ccncc3)c(-c3ccc(F)cc3)[nH]2)cc1 (stereo not drawn) [SB203580]
- Inhibits Mitochondrial Biogenesis? (XALD fibroblasts [1]): no

Compound: COc1cc(C[C@H]2C(=O)OC[C@@H]2Cc2ccc(OC)c(OC)c2)ccc1O [arctigenin]
- Inhibits Mitochondrial Biogenesis? (XALD fibroblasts [1]): no

Compound: N#CC(=C(/N)Sc1ccccc1N)/C(C#N)=C(\N)Sc1ccccc1N [U0126]
- Inhibits Mitochondrial Biogenesis? (XALD fibroblasts [1]): no

Compound: COC(=O)[C@@H](N)CCCNC(=N)N[N+](=O)[O-] [L-NAME]
- Inhibits Mitochondrial Biogenesis? (XALD fibroblasts [1]): no

Compound: CC(NC(=O)c1ccccc1/N=C/c1c(O)ccc2ccccc12)c1ccccc1 (stereo not drawn) [sirtinol]
- increase in FL-SMN transcript levels in SFN-treated spinal muscular atrophy fibroblasts (FL-SMN mRNA): prevented

Compound: c1cc(-c2cnn3cc(-c4ccc(OCCN5CCCCC5)cc4)cnc23)ccn1 [compound C]
- Inhibits Mitochondrial Biogenesis? (XALD fibroblasts [1]): no

Compound: COc1cccc(-c2cc(=O)c3ccccc3o2)c1N [PD98059]
- Inhibits Mitochondrial Biogenesis? (XALD fibroblasts [1]): no

Compound: Cn1cnc(N)c2ncnc1-2 [3-methyladenine]
- increase in FL-SMN transcript levels in SFN-treated spinal muscular atrophy fibroblasts (FL-SMN mRNA): prevented

Compound: Cn1cc(C2=C(c3c4n(c5ccccc35)CCC(CN)C4)C(=O)NC2=O)c2ccccc21 (stereo not drawn) [RO-21-8425]
- Inhibits Mitochondrial Biogenesis? (XALD fibroblasts [1]): no

Compound: CCCC(=O)[O-].[Na+] [SB, Sodium butyrate]
- mitochondrial mass (K562 cells [2]; [6]): significantly increased
- number of HbF-producing cells (K562 cells [3]; [6]): significantly increased
- HbF levels (HbF): increased
- peroxisomal proliferation (K562 cells [4]): significantly increased

Compound: Antimycin A [AA]
- increase in FL-SMN transcript levels in SFN-treated spinal muscular atrophy fibroblasts (FL-SMN mRNA): prevented
- induction of mitochondrial biogenesis by SB or HU treatment (K562 cells [2]; effect of co-treatment with AA): significantly inhibited
- induction of HbF-producing cells by SB or HU treatment (K562 cells [3]; effect of co-treatment with AA): significantly inhibited
- induction of peroxisomal VLCFA β-oxidation (XALD fibroblasts [5]; 4PBA in the presence of AA): blocked
- 4PBA-induction of mitochondrial LCFA β-oxidation (XALD fibroblasts [5]; in the presence of AA (10 ng/mL)): inhibited
